Source: patent US8685392B2 (priority 2009, dated 2014)

What was measured:
[1] = tested on: gliadin-degrading enzymes of strain WSA-2B
Experimental: (§1) Saliva ion buffer contains 50 mM KCl, 1 mM K2HPO4, 1 mM CaCl2 and 0.1 mM MgCl2 (pH 6.5). Cells were preincubated with the inhibitors for 15 min at room temperature prior to the addition of substrate. Z-YPQ-pNA hydrolysis was followed at 405 nm. Initial velocities of the enzymatic reaction are plotted.
(§2) Inhibitory effects were monitored toward the capacity to hydrolyze Z-YPQ-pNA. The initial rate of substrate proteolysis (Vi) was determined during the first 30 minute incubation time interval.

[2] = tested on: gliadin-degrading enzymes of strain WSA-8
Experimental: as §1, §2

Cl.NCCc1ccc(S(=O)(=O)F)cc1 [AEBSF, 4-(2-Aminoethyl) benzenesulfonyl fluoride hydrochloride]
inhibition of Z-YPQ-pNA hydrolysis (initial rate Vi) in WSA-2B [1]: 97%
inhibition of Z-YPQ-pNA hydrolysis (initial rate Vi) in WSA-8 [2]: 78%
